Experimental data from PMC8550792, “Evolution of kinase polypharmacology across HSP90 drug discovery” (Cell Chemical Biology, 2021).

Key:
Assay in all cases: biochemical
Type in all cases: biochemical
382 unique human kinases [1] = biological target: T1, 382 unique human kinases (Homo sapiens, UniProt P00533, L858R/T790M); conditions: EGFR (L858R, T790M), 10 uM; for remaining activity at 10 µM: read-out: % Enzyme Activity (relative to DMSO controls)
T1 construct: purchased Reaction Biology (HotSpot contract assay)

382 unique human kinases [2] = biological target: T2, 382 unique human kinases (Homo sapiens, UniProt Q12866); conditions: c-MER, 10 uM; for remaining activity at 10 µM: read-out: % Enzyme Activity (relative to DMSO controls)
T2 construct: purchased Reaction Biology (HotSpot contract assay)
T2 sequence (Q12866 21-999): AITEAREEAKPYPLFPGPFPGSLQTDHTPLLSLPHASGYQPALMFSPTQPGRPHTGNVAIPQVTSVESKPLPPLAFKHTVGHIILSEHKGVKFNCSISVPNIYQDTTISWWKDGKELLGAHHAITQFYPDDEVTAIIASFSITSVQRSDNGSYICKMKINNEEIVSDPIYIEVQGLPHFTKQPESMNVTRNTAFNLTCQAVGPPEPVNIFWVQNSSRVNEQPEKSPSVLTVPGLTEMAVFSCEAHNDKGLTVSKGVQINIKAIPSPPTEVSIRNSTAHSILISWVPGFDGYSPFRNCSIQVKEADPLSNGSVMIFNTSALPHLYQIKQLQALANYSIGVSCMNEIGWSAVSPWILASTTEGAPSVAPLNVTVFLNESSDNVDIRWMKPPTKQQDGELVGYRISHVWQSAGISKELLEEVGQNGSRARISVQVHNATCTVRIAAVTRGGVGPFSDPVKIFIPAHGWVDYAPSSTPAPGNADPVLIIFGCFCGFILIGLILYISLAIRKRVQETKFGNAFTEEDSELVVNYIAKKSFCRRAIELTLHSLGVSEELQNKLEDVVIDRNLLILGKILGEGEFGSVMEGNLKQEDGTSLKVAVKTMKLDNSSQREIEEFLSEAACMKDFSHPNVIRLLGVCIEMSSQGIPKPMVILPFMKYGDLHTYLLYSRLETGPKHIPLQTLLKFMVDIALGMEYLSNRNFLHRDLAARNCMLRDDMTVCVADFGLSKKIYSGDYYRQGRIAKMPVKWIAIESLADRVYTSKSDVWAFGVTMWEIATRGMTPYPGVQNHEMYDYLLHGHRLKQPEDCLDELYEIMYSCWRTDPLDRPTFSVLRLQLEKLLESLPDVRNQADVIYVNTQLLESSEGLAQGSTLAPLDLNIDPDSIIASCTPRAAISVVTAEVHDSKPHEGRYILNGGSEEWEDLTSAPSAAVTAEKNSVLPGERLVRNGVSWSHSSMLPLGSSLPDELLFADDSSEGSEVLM

382 unique human kinases [3] = biological target: T3, 382 unique human kinases (Homo sapiens, UniProt Q9UKE5); conditions: TNIK, 10 uM; for remaining activity at 10 µM: read-out: % Enzyme Activity (relative to DMSO controls)
T3 construct: purchased Reaction Biology (HotSpot contract assay)

382 unique human kinases [4] = biological target: T4, 382 unique human kinases (Homo sapiens, UniProt P78362); conditions: kinase SRPK2, compound 10 uM; for remaining activity at 10 µM: read-out: % Enzyme Activity (relative to DMSO controls)
T4 construct: purchased Reaction Biology (HotSpot contract assay)
T4 sequence (P78362 whole entry): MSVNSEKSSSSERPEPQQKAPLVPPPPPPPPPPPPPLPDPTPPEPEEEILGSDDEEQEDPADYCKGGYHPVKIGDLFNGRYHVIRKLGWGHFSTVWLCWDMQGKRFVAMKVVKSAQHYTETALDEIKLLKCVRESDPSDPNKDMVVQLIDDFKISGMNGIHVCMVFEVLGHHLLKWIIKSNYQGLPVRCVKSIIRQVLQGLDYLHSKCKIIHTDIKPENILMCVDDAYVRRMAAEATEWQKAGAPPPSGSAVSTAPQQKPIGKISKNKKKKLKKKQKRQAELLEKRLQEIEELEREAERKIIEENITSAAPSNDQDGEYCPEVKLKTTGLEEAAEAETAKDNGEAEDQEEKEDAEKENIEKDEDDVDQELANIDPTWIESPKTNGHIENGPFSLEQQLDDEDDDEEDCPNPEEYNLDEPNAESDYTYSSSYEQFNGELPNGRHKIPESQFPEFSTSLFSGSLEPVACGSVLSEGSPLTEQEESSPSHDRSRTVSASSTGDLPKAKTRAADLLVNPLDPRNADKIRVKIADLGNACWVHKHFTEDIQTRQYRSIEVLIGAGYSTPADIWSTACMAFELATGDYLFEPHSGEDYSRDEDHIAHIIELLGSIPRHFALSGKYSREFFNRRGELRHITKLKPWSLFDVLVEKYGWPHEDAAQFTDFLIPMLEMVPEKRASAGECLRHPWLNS

382 unique human kinases [5] = biological target: T5, 382 unique human kinases (Homo sapiens, UniProt P10721, D816E); conditions: c-Kit (D816E), [ATP] 50 µM, compound 10 uM; for remaining activity at 10 µM: read-out: % Enzyme Activity (relative to DMSO controls)
T5 construct: purchased Reaction Biology (HotSpot contract assay)
T5 sequence (P10721 26-976 D816E): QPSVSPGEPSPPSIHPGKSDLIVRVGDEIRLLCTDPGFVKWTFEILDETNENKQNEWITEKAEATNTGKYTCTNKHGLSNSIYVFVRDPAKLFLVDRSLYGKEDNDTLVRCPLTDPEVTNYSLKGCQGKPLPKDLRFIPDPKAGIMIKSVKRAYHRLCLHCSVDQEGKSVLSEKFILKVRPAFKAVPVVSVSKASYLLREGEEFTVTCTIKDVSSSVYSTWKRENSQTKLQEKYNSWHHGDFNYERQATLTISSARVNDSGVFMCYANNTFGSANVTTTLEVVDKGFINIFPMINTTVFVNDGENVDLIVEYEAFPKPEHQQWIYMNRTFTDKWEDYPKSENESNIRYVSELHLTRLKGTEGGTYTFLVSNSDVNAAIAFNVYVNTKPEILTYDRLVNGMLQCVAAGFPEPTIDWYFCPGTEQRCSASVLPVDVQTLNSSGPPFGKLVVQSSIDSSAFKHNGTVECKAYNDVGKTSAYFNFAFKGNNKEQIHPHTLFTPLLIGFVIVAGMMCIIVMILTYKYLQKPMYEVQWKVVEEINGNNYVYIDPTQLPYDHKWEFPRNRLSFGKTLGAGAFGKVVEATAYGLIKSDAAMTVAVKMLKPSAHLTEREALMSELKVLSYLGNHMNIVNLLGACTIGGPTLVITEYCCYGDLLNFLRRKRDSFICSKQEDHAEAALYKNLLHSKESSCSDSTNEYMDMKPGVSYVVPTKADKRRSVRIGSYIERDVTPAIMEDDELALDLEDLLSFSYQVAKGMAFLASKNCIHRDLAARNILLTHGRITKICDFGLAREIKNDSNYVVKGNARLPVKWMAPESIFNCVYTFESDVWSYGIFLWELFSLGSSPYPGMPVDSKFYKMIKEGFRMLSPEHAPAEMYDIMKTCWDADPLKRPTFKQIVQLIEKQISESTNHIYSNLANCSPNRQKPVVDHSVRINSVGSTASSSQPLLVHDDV

382 unique human kinases [6] = biological target: T6, 382 unique human kinases (Homo sapiens, UniProt Q86SG6); conditions: NEK8, [ATP] 100 µM, compound 10 uM; for remaining activity at 10 µM: read-out: % Enzyme Activity (relative to DMSO controls)
T6 construct: purchased Reaction Biology (HotSpot contract assay)
T6 sequence (Q86SG6 1-692): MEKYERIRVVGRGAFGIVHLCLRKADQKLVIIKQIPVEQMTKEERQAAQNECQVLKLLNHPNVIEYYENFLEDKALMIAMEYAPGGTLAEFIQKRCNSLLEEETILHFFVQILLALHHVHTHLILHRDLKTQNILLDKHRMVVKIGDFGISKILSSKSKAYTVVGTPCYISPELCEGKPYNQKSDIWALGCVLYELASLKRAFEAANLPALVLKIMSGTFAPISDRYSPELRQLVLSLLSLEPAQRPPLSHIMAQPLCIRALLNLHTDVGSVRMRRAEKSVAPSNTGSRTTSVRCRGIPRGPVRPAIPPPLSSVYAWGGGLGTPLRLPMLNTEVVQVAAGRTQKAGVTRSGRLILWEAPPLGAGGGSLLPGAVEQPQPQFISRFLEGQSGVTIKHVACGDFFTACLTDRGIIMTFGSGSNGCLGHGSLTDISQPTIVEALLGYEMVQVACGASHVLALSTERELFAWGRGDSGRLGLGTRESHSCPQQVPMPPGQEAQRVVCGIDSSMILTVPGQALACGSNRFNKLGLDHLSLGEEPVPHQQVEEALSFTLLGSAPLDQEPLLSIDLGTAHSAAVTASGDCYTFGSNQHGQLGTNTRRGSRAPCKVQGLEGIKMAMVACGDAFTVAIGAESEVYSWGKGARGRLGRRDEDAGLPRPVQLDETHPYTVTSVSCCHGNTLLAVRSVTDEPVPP

382 unique human kinases [7] = biological target: T7, 382 unique human kinases (Homo sapiens, UniProt Q16513); conditions: PKN2/PRK2, 10 uM; for remaining activity at 10 µM: read-out: % Enzyme Activity (relative to DMSO controls)
T7 construct: purchased Reaction Biology (HotSpot contract assay)
T7 sequence (Q16513 whole entry): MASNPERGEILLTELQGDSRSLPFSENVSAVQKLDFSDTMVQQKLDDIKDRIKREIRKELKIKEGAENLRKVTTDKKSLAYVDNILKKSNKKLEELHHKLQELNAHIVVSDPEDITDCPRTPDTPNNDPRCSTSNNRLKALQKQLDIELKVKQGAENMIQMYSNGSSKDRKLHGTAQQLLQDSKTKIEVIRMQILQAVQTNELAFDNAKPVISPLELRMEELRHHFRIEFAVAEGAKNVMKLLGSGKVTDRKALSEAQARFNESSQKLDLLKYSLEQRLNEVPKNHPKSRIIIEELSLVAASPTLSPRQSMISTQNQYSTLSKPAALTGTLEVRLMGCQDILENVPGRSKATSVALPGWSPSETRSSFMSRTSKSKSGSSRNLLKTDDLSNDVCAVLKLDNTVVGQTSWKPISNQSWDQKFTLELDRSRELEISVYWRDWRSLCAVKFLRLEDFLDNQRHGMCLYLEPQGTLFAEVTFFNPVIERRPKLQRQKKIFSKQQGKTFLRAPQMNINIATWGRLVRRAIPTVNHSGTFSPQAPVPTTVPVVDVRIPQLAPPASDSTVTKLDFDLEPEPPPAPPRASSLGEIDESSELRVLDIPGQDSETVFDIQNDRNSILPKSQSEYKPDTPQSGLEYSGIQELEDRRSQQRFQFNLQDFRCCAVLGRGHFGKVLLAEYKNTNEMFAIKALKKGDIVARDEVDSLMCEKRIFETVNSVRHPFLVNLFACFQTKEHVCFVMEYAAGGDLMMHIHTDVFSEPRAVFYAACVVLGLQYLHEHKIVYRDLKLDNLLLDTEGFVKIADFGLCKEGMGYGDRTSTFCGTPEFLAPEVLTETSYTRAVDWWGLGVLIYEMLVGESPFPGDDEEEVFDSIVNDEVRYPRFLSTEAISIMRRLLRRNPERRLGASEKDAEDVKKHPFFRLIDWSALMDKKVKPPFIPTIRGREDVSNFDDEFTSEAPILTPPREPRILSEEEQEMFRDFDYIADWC

382 unique human kinases [8] = biological target: T8, 382 unique human kinases (Homo sapiens, UniProt Q16584); conditions: MLK3/MAP3K11, 10 uM; for remaining activity at 10 µM: read-out: % Enzyme Activity (relative to DMSO controls)
T8 construct: purchased Reaction Biology (HotSpot contract assay)
T8 sequence (Q16584 whole entry): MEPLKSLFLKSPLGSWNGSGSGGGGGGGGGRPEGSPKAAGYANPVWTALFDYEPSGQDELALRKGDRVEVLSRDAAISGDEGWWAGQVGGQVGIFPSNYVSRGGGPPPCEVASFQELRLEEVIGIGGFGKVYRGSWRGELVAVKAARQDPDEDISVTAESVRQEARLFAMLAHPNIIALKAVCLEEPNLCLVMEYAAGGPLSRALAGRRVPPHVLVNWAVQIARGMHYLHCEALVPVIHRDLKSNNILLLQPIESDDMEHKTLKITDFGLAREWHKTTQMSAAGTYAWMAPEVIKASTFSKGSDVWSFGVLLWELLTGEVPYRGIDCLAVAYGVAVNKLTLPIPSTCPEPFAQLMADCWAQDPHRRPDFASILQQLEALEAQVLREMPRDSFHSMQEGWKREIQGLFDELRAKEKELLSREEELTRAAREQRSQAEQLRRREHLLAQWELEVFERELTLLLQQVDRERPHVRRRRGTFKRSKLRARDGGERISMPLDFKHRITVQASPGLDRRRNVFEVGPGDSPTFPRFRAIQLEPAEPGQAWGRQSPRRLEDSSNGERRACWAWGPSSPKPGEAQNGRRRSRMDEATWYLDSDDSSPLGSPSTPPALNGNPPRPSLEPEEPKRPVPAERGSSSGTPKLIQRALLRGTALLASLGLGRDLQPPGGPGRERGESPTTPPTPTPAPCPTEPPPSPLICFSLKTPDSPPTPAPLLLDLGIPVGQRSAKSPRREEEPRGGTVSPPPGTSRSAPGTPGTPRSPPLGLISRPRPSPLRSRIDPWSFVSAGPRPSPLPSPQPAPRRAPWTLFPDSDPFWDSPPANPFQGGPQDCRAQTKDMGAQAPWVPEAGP

382 unique human kinases [9] = biological target: T9, 382 unique human kinases (Homo sapiens, UniProt Q9UM73, T1151M); conditions: ALK (T1151M), [ATP] 50 µM, compound 10 uM; for remaining activity at 10 µM: read-out: % Enzyme Activity (relative to DMSO controls)
T9 construct: purchased Reaction Biology (HotSpot contract assay)
T9 sequence (Q9UM73 19-1620 T1151M): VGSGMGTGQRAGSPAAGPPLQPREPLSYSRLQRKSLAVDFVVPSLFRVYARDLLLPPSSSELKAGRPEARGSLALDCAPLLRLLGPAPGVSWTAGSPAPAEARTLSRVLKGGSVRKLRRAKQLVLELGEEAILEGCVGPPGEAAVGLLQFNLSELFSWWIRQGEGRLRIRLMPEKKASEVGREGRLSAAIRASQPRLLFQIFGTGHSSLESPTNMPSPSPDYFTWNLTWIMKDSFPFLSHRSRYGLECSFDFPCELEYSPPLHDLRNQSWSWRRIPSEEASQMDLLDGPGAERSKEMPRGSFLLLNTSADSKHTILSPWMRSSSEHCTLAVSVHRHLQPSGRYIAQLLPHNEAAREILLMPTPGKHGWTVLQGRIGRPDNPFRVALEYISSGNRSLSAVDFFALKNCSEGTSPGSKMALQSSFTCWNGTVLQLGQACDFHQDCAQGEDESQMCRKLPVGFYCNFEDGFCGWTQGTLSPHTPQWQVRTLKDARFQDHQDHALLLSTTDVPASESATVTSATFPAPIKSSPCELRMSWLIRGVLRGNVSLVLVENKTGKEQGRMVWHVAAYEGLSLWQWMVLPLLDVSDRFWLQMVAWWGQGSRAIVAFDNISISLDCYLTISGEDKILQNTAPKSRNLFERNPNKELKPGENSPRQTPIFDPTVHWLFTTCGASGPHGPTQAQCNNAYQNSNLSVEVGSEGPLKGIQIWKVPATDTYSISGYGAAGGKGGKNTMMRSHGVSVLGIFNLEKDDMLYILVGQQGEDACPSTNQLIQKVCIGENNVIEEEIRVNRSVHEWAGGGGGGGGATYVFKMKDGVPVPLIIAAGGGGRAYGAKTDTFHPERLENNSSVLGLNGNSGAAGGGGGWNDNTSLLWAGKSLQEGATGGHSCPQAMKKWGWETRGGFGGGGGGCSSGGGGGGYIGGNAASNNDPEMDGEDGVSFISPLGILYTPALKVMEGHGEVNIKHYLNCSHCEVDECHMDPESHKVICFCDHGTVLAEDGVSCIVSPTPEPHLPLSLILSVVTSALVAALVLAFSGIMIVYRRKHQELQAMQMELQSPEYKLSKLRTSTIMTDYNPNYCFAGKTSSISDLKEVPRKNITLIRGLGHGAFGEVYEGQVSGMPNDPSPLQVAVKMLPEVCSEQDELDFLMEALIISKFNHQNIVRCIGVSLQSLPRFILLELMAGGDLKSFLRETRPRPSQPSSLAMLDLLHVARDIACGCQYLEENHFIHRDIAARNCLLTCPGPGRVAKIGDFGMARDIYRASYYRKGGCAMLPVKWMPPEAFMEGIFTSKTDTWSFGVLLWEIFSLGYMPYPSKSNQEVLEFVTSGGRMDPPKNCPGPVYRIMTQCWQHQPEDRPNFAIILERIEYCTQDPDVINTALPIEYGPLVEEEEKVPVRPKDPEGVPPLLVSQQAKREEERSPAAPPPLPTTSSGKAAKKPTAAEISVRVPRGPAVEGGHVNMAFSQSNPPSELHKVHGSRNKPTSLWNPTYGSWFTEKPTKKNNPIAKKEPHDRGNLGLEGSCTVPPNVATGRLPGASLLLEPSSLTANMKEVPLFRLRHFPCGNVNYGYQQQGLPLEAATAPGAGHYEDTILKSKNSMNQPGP

382 unique human kinases [10] = biological target: T10, 382 unique human kinases (Homo sapiens, UniProt O00141); conditions: SGK1, 10 uM; for remaining activity at 10 µM: read-out: % Enzyme Activity (relative to DMSO controls)
T10 construct: purchased Reaction Biology (HotSpot contract assay)
T10 sequence (O00141 1-431): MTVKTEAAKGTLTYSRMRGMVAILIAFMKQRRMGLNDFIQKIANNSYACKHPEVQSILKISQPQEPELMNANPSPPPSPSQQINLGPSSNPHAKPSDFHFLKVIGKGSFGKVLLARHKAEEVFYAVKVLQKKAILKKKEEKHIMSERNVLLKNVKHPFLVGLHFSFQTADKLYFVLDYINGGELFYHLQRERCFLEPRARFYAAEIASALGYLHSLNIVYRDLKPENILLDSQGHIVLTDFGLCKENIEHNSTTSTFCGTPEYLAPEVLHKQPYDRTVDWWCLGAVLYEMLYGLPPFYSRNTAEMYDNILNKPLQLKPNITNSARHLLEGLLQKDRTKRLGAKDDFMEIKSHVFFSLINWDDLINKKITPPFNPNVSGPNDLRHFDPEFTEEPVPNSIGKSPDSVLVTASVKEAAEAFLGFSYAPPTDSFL

382 unique human kinases [11] = biological target: T11, 382 unique human kinases (Homo sapiens, UniProt P00533, G719D); conditions: EGFR (G719D), 10 uM; for remaining activity at 10 µM: read-out: % Enzyme Activity (relative to DMSO controls)
T11 construct: purchased Reaction Biology (HotSpot contract assay)

SMILES | remaining activity at 10 µM (382 unique human kinases [1]) [%] | remaining activity at 10 µM (382 unique human kinases [2]) [%] | remaining activity at 10 µM (382 unique human kinases [3]) [%] | remaining activity at 10 µM (382 unique human kinases [4]) [%] | remaining activity at 10 µM (382 unique human kinases [5]) [%] | remaining activity at 10 µM (382 unique human kinases [6]) [%] | remaining activity at 10 µM (382 unique human kinases [7]) [%] | remaining activity at 10 µM (382 unique human kinases [8]) [%] | remaining activity at 10 µM (382 unique human kinases [9]) [%] | remaining activity at 10 µM (382 unique human kinases [10]) [%] | remaining activity at 10 µM (382 unique human kinases [11]) [%] | other results
CC(C)c1cc(-c2n[nH]c(=O)n2-c2ccc3c(ccn3C)c2)c(O)cc1O [Ganetespib (STA9090)] | 91.5 | 63.5 | 62.6 | 89.8 | – | – | – | – | – | – | – | –
CC(C)c1cc(-c2n[nH]c(=O)n2-c2ccc3c(ccn3C)c2)c(O)cc1O [Ganetespib] | – | – | – | – | 41.2 | 56.7 | 95.7 | 91 | 45.5 | 99 | 104 | –
CCNC(=O)c1noc(-c2cc(C(C)C)c(O)cc2O)c1-c1ccc(CN2CCOCC2)cc1 [Luminespib] | – | – | – | – | 76.2 | 94.8 | 99.3 | 104 | 99.2 | 100 | 99 | % Enzyme Activity (relative to DMSO controls) (382 unique human kinases [5]): 73.14%; % Enzyme Activity (relative to DMSO controls) (382 unique human kinases [6]): 93.87%; % Enzyme Activity (relative to DMSO controls) (382 unique human kinases [7]): 98.60%; % Enzyme Activity (relative to DMSO controls) (382 unique human kinases [8]): 103.89%; % Enzyme Activity (relative to DMSO controls) (382 unique human kinases [9]): 99.07%; % Enzyme Activity (relative to DMSO controls) (382 unique human kinases [10]): 99.71%; % Enzyme Activity (relative to DMSO controls) (382 unique human kinases [11]): 97.19%
CCNC(=O)c1noc(-c2cc(C(C)C)c(O)cc2O)c1-c1ccc(CN2CCOCC2)cc1 [Luminespib (AUY-922)] | 73.8 | 97.7 | 96.6 | 99.5 | – | – | – | – | – | – | – | % Enzyme Activity (relative to DMSO controls) (382 unique human kinases [1]): 61.22%; % Enzyme Activity (relative to DMSO controls) (382 unique human kinases [2]): 93.85%; % Enzyme Activity (relative to DMSO controls) (382 unique human kinases [3]): 95.71%; % Enzyme Activity (relative to DMSO controls) (382 unique human kinases [4]): 97.52%
